We go through nine compounds from patent US6376510B1, “Neuromuscular relaxants” (Newlaxant LLC, priority 1997, dated 2002).

Series [1] relates to anesthetized rats (evoked responses of anterior tibial muscle). In words: Muscle relaxant (neuromuscular blocking) properties, anesthetized rat (Example 9, Table 9). The following applies: rat; for ED50: intravenous dose causing 50% neuromuscular block, spread in brackets; for RI (recovery index): spontaneous recovery, 25-75% neuromuscular response; for Onset: time to 80-85% neuromuscular block. The source says: The data on muscle relaxant action were obtained on anesthetized rats, and when indicated, also on juvenile pigs
Adult, male albino rats were anesthetized with pentobarbital injected intraperitoneally. Juvenile, Duroc pigs 9-12 kg body weight were anesthetized with Chloralose Nembutal sodium mixture intraperitoneally after deep sedation with inhaled halothane. The trachea was cannulated for artificial respiration via a small animal respirator. The carotid artery was cannulated for recording blood pressure via a transducer and heart rate by a cardiotachograph on a polygraph. One external jugular vein was cannulated for i.v. drug administration. Neuromuscular function was monitored by electromyography, recording evoked responses from the anterior tibial muscle as a result of supramaximal nerve stimuli consisting of single or “train-of-four” rectangular pulses of 0.1-0.2 msec duration every 10-12 seconds, delivered to the sciatic or common peroneal nerve by a laboratory nerve stimulator. Another mode of stimulation included repeated single stimuli delivered at 0.1 Hz or 1 Hz. […] The agents were dissolved in physiologic saline and injected intravenously at appropriate time intervals. The intensity, onset, and duration of neuromuscular block and its type were determined with each agent. Through administering several doses, the doses corresponding to 50%, 80% and 90% neuromuscular block were determined. All agents were compared with selected standard neuromuscular blocking compounds, e.g., rocuronium.
(§1) Onset=time in minutes to 80-85% neuromuscular block.
(§2) RI=recovery index, minutes, spontaneous recovery, 25-75% neuromuscular response.
(§3) VB=vagal block, %, at 80-85% neuromuscular blocking dose.
HR=change in heart rate, %, at 80-85% neuromuscular blocking dose.
BP=change in arterial blood pressure, %, at 80-85% neuromuscular blocking dose.

For series [2] the test system is unchanged. Kind of series: In vivo neuromuscular block and cardiovascular side effects, anesthetized rat (Example 8, Table 3). To be noted: rat; for ED50: intravenous dose causing 50% neuromuscular block; for RI (recovery index): spontaneous recovery, 25-75% neuromuscular response; for Onset: time to 80-85% neuromuscular block. The procedure, abridged: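 Pentobarbital-anesthetized (i.p.), ventilated adult male rats given saline-dissolved agents i.v.; anterior tibial EMG responses to supramaximal single or train-of-four sciatic/peroneal stimuli, plus 0.1 or 1 Hz stimulation. Doses for 50%, 80%, 90% block derived. Onset: minutes to 80-85% block; RI: 25-75% spontaneous recovery; vagal block, heart rate and blood pressure changes (%) at 80-85% blocking dose.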

The subject of series [3] is anesthetized cats (evoked responses of anterior tibial muscle). In words: animal or person. To be noted: for ED50 / RI (recovery index) / Onset: cat; for ED50: intravenous dose causing 50% neuromuscular block; for RI (recovery index): spontaneous recovery, 25-75% neuromuscular response; for Onset: time to 80-85% neuromuscular block; for VB (vagal block) / ΔBP (change in arterial blood pressure) / ΔH (change in heart rate): in vivo.
Source text: a) Adult, male albino rats were anesthetized with pentobarbital injected intraperitoneally. The trachea was cannulated for artificial respiration via a small animal respirator. The carotid artery was cannulated for recording blood pressure via a transducer and heart rate by a cardiotachograph on a polygraph. One external jugular vein was cannulated for i.v. drug administration. Neuromuscular function was monitored by electromyography, recording evoked responses from the anterior tibial muscle as a result of supramaximal nerve stimuli consisting of single or “train-of-four” rectangular pulses of 0.1-0.2 msec duration every 10-12 seconds, delivered to the sciatic or common peroneal nerve by a laboratory nerve stimulator. Another mode of stimulation included repeated single stimuli delivered at 0.1 Hz or 1 Hz. […] The agents were dissolved in physiologic saline and injected intravenously at appropriate time intervals. The intensity, onset, and duration of neuromuscular block and its type were determined with each agent. Through administering several doses, the doses corresponding to 50%, 80% and 90% neuromuscular block were determined. All agents were compared with selected standard neuromuscular blocking compounds, e.g. succinylcholine, pancuronium, mivacurium, or rocuronium.
as §1, §2, §3
ΔHR=change in heart rate, %, at 80-85% neuromuscular blocking dose.
ΔBP=change in arterial blood pressure, %, at 80-85% neuromuscular blocking dose.
b) Adult cats were anesthetized with a mixture of 70 mg/kg alpha chloralose and 0.5 g/kg ethylurethane intraperitoneally. One thigh was fixed in a vertical position by means of a pin at the lower end of the femur. Needle electrodes were placed on the sciatic or the common peroneal nerve. A tendon of the anterior tibial muscle was attached to a force transducer and the muscle responses evoked, as described under a), were recorded. Both electromyographic and mechanomyographic responses can be quantified. Blood pressure and heart rate changes were recorded from appropriately cannulated arteries via a blood pressure transducer and cardiotachograph.

In series [4] the test system is anesthetized juvenile pigs. In words: animal or person. To be noted: pig; for VB (vagal block) / ΔBP (change in arterial blood pressure) / ΔH (change in heart rate): in vivo; for ED50: intravenous dose causing 50% neuromuscular block; for RI (recovery index): spontaneous recovery, 25-75% neuromuscular response; for Onset: time to 80-85% neuromuscular block. It is filed as in vivo. An outline of the steps:
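Electromyographic and mechanomyographic responses quantified. Monkeys sedated with intramuscular ketamine, then general anesthesia with intravenous pentobarbital and propofol; juvenile pigs induced with inhaled halothane.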

The test system of another series is anesthetized monkeys. Kind of series: In vivo neuromuscular block and cardiovascular side effects, monkey (Example 8, Table 6). The following applies: for ΔBP (change in arterial blood pressure) / ΔH (change in heart rate): in vivo; for ED50: intravenous dose causing 50% neuromuscular block; for RI (recovery index): spontaneous recovery, 25-75% neuromuscular response; for Onset: time to 80-85% neuromuscular block. The source says: Both electromyographic and mechanomyographic responses can be quantified.
The techniques described under a) and b) were employed in other species as needed with the modification that juvenile pigs were initially anesthetized with inhalation of halothane (Table 5) and monkeys were initially sedated with intramuscular ketamine injections prior to inducing and maintaining general anesthesia using pentobarbital and propofol administered intravenously (Table 6).

The test system of a further series is rabbits. In words: In vivo neuromuscular block and cardiovascular side effects, rabbit (Example 8, Table 7). To be noted: for ΔBP (change in arterial blood pressure) / ΔH (change in heart rate): in vivo; for ED50: intravenous dose causing 50% neuromuscular block; for RI (recovery index): spontaneous recovery, 25-75% neuromuscular response; for Onset: time to 80-85% neuromuscular block.

Where [5] appears, read: at 80-85% neuromuscular blocking dose.

Regarding `CC(=O)Oc1ccc(C[N+](C)(C)C2CCC(OC(=O)/C=C/C(=O)OC3CCC([N+](C)(C)Cc4ccc(OC(C)=O)c(OC(C)=O)c4)CC3)CC2)cc1OC(C)=O.[Br-].[Br-]` (centres unmarked) [Bis[4-dimethylaminocyclohexyl]fumarate bis(3,4-diacetoxybenzyl bromide)], in series [1] (in vivo), the “% VB at ED80 nmb (vagal block)” value was 65 (18) %, the “BP (change in arterial blood pressure)” value was −4 (3) % and the “HR (change in heart rate)” value was “+6 (3) %”. Also, in series [1], the ED50 is on record as 2125 (475) μg/kg, the “RI (recovery index)” value was 1.5 (0.1) min and the Onset is given as 1.3 (0.1) min.

Take `CC(=O)Oc1ccc(C[N+](C)(C)C2CCC(OC(=O)CCCC(=O)OC3CCC([N+](C)(C)Cc4ccc(OC(C)=O)c(OC(C)=O)c4)CC3)CC2)cc1OC(C)=O.[Br-].[Br-]` (centres unmarked) [Bis[4-dimethylaminocyclohexyl]glutarate bis(3,4-diacetoxybenzyl bromide)]: in series [1] (in vivo), the “% VB at ED80 nmb (vagal block)” value is recorded as 64 (22) %, the “BP (change in arterial blood pressure)” value is given as −13 (6) % and the “HR (change in heart rate)” value is on record as −5 (3) %. In addition, in series [1], the ED50 is 700 (122) μg/kg, the “RI (recovery index)” value is 0.8 (0.07) min and the Onset was 0.75 (0.05) min.

With `COc1cc(C[N+](C)(C)C2CCC(OC(=O)CCCC(=O)OC3CCC([N+](C)(C)Cc4ccc(OC(C)=O)c(OC)c4)CC3)CC2)ccc1OC(C)=O.[Br-].[Br-]` (centres unmarked) [Bis[4-dimethylaminocyclohexyl]glutarate bis(4-acetoxy-3-methoxybenzyl bromide)], in series [1] (setting [5]), the “% VB at ED80 nmb (vagal block)” value is 73 (9) %, the “BP (change in arterial blood pressure)” value is reported as −14 (5) % and the “HR (change in heart rate)” value was −5 (2) %. In addition, in series [1], the ED50 is 2075 (188) μg/kg, the “RI (recovery index)” value is 0.9 (0.05) min and the Onset is 0.84 (0.06) min.

`CC(=O)Oc1ccc(C[N+]2(C)C3CCCC2CC(OC(=O)CCCCC(=O)OC2CC4CCCC(C2)[N+]4(C)Cc2ccc(OC(C)=O)c(OC(C)=O)c2)C3)cc1OC(C)=O.[Br-].[Br-]` (centres unmarked) [bis[N-(3,4-diacetoxybenzyl)granataninium-3-yl]adipate dibromide]: in series [2] (in vivo), the “VB (vagal block)” value is reported as 5%, the “ΔBP (change in arterial blood pressure)” value came to 0% and the “ΔH (change in heart rate)” value turned out to be 0%. Moreover, in series [2], the ED50 is 0.14 mg/kg, the “RI (recovery index)” value was determined as 0.4 min and the Onset came to 0.5 min. Also, in series [3], the ED50 turned out to be 0.4 mg/kg, the “RI (recovery index)” value amounted to 0.5 min, the Onset stood at 0.7 min and the “VB (vagal block)” value worked out at 70%. Besides, in series [3], the “ΔBP (change in arterial blood pressure)” value is given as −40% and the “ΔH (change in heart rate)” value amounted to 0%. Besides, in series [4], the “VB (vagal block)” value is listed as 51%, the “ΔBP (change in arterial blood pressure)” value is reported as 0%, the “ΔH (change in heart rate)” value came to 0% and the ED50 stood at 0.14 mg/kg. Moreover, in series [4], the “RI (recovery index)” value amounted to 0.9 min and the Onset came out at 0.7 min. Further, in the series on anesthetized monkeys, the “ΔBP (change in arterial blood pressure)” value worked out at 0%, the “ΔH (change in heart rate)” value worked out at 0%, the ED50 worked out at 0.085 mg/kg and the “RI (recovery index)” value amounted to 0.4 min. Further, the Onset in the series on anesthetized monkeys amounted to 0.8 min. Moreover, in the series on rabbits, the “ΔBP (change in arterial blood pressure)” value was determined as 0%, the “ΔH (change in heart rate)” value is 0%, the ED50 was determined as 0.167 mg/kg and the “RI (recovery index)” value worked out at 0.5 min. Also, the Onset in the series with rabbits was 0.68 min.

Consider `CC(=O)Oc1ccc(C[N+]2(C)C3CCC2CC(OC(=O)C2C4C=CC(C4)C2C(=O)OC2CC4CCC(C2)[N+]4(C)Cc2ccc(OC(C)=O)c(OC(C)=O)c2)C3)cc1OC(C)=O.[Br-].[Br-]` (stereo not drawn) [bis[N-(3,4-diacetoxybenzyl)tropanium-3α-yl]trans-3,6-endomet] [bis[N-(3,4-diacetoxybenzyl)tropanium-3α-yl]trans-3,6-endomethylene-1,2,3,6-tetrahydrophthalate dibromide], for which the “VB (vagal block)” value is 32% in series [2] (setting [5]), 30% in series [3] and 42% in series [4]. Besides, the “ΔBP (change in arterial blood pressure)” value is given as 0% in series [2] (setting [5]); −30% in series [3]; 0% in series [4]; 0% in the series with anesthetized monkeys; 0% in the series with rabbits. In addition, the “ΔH (change in heart rate)” value in series [2] (setting [5]) is reported as 0%; in series [3] it was −12%; in series [4], 0%; in the series on anesthetized monkeys, 0%; with rabbits, 0%. Further, the ED50 in series [2] was 0.084 mg/kg; in series [3], 0.12 mg/kg; in series [4], 0.197 mg/kg; with anesthetized monkeys, 0.06 mg/kg; in the series with rabbits it was 0.096 mg/kg. Also, the “RI (recovery index)” value was 0.5 min in series [2]; 0.5 min in series [3]; 0.9 min in series [4]; 0.65 min with anesthetized monkeys; 0.7 min in the series with rabbits. Further, the Onset is 0.65 min in series [2]; 0.9 min in series [3]; 0.65 min in series [4]; 0.8 min with anesthetized monkeys; 0.8 min in the series with rabbits.

As to “Bis[4-dimethylaminocyclohexyl]fumarate bis(4-acetoxy-3-methoxybenzyl bromide)”, in series [1], the ED50 is 2138 (128) μg/kg, the “RI (recovery index)” value is 0.65 (0.05) min and the Onset was 1.3 (0.05) min.

For “Bis[4-dimethylaminocyclohexyl]glutarate bis(benzyl bromide) [reference compound]”, in series [1], the ED50 was 2500 µg/kg, the “RI (recovery index)” value is 1.65 (0.1) min and the Onset is 1.6 (0.1) min.

Turning to “Bis[N-(3,4-diacetoxybenzyl)-6-azabicyclo[3.2.1]octanium-3-yl]glutarate dibromide”, in series [1] (in vivo), the “% VB at ED80 nmb (vagal block)” value is 19 (4) %, the “BP (change in arterial blood pressure)” value is 0% and the “HR (change in heart rate)” value came out at 0%. Moreover, in series [1], the ED50 is on record as 440 (39) μg/kg, the “RI (recovery index)” value is on record as 0.4 (0.05) min and the Onset is given as 0.55 (0.05) min.

Turning to “Bis[N-(3,4-dipropionyloxybenzyl)-6-azabicyclo[3.2.1]octanium-3-yl]glutarate dibromide”, in series [1] (in vivo), the “% VB at ED80 nmb (vagal block)” value is reported as 63 (7) %, the “BP (change in arterial blood pressure)” value is “+8 (2) %” and the “HR (change in heart rate)” value was 0%. In series [1], the ED50 was 1002 (174) μg/kg, the “RI (recovery index)” value was 0.47 (0.03) min and the Onset is on record as 0.5 (0.03) min.
